Measurements as given in ChEMBL document CHEMBL3808337, “Rapid Discovery of Pyrido[3,4-d]pyrimidine Inhibitors of Monopolar Spindle Kinase 1 (MPS1) Using a Structure-Based Hybridization Approach” (J Med Chem, 2016).

What was measured:
[1] = Drug metabolism in CD1 mouse liver microsomes at 10 uM after 30 mins by LCMS analysis; type: ADME; conditions: read-out: Drug metabolism
[2] = Antiproliferative activity against human HCT116 cells assessed as cell viability after 72 hrs by MTT assay; type: functional; conditions: HCT-116, 72 h
CDK2/Cyclin A2 = CDK2/Cyclin A2 (Homo sapiens, UniProt P24941)
Cytochrome P450 3A4 [3] = target: T1, Cytochrome P450 3A4 (Homo sapiens, UniProt P08684); assay: Inhibition of CYP3A4 (unknown origin) using testosterone as substrate; type: ADME
[4] = Clearance in Sprague-Dawley rat blood at 5 mg/kg, iv or po after 24 hrs by ESI-LCMS/MS analysis; type: ADME, organism-based
[5] = Antiproliferative activity against human CAL51 cells assessed as cell viability after 72 hrs by MTT assay; type: functional; conditions: CAL-51, 72 h
Cytochrome P450 2C8 = target: T2, Cytochrome P450 2C8 (Homo sapiens, UniProt P10632); assay: Inhibition of CYP2C8 (unknown origin); type: ADME
T2 sequence (P10632 whole entry): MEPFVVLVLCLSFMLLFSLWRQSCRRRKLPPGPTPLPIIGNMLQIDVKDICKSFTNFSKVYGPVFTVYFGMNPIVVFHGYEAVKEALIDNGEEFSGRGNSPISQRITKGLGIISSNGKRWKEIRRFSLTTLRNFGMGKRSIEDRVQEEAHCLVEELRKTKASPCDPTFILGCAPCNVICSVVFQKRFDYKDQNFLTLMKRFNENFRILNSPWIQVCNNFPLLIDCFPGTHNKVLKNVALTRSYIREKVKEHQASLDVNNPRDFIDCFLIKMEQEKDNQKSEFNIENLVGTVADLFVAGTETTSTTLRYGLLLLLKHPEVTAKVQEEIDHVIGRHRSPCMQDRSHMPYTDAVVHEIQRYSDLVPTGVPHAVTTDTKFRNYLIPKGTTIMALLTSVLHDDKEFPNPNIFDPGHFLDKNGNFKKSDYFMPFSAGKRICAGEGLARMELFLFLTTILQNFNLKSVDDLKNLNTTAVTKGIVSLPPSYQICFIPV

[6] = Drug metabolism in human liver microsomes at 10 uM after 30 mins by LCMS analysis; type: ADME; conditions: read-out: Drug metabolism
[7] = Half life in Sprague-Dawley rat blood at 5 mg/kg, iv or po […] by ESI-LCMS/MS analysis; type: ADME, organism-based
[8] = Cmax in Balb/C mouse blood at 5 mg/kg, po after 24 hrs by ESI-LCMS/MS analysis; type: ADME, organism-based; parameters: dose 5 mg/kg, route oral
Cytochrome P450 1A2 = target: T3, Cytochrome P450 1A2 (Homo sapiens, UniProt P05177); assay: Inhibition of CYP1A2 (unknown origin); type: ADME; conditions: human
T3 sequence (P05177 whole entry): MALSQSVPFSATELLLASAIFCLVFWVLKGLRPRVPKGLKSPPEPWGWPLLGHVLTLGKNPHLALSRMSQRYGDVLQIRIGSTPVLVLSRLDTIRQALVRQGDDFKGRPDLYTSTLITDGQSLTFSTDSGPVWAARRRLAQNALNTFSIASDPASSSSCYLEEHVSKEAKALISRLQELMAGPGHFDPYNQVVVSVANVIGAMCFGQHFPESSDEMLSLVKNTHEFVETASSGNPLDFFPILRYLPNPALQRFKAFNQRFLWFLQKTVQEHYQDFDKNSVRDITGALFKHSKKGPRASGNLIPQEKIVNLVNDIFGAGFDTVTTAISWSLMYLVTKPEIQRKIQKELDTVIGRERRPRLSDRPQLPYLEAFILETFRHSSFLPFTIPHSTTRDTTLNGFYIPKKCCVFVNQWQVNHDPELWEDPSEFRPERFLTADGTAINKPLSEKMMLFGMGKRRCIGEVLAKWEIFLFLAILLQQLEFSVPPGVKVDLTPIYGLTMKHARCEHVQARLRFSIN

Cytochrome P450 2A6 = target: T4, Cytochrome P450 2A6 (Homo sapiens, UniProt P11509); assay: Inhibition of CYP2A6 (unknown origin); type: ADME
T4 sequence (P11509 whole entry): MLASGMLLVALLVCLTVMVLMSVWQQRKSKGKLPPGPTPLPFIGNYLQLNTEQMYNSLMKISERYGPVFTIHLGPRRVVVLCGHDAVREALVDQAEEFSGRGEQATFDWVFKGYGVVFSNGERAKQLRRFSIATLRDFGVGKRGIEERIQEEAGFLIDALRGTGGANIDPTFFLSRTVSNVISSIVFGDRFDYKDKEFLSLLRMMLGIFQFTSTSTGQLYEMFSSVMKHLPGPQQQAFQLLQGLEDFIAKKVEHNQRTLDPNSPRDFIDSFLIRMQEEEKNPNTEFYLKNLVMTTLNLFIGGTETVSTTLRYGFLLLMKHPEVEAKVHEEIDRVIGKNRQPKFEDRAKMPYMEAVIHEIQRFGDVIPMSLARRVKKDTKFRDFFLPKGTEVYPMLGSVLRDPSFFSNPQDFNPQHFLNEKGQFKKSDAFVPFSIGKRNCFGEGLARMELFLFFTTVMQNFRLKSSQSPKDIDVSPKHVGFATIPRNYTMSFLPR

[9] = Antiproliferative activity against human SW620 cells assessed as cell viability after 72 hrs by MTT assay; type: functional; conditions: SW-620, 72 h
[10] = AUC in Sprague-Dawley rat blood at 5 mg/kg, po after 24 hrs by ESI-LCMS/MS analysis; type: ADME, organism-based; parameters: time < 24 hr, dose 5 mg/kg, route oral
[11] = Plasma protein binding in Balb/C mouse at 5 mg/kg, iv or po after 24 hrs by ESI-LCMS/MS analysis; type: ADME, organism-based; conditions: read-out: PPB (converted)
Cytochrome P450 2B6 = target: T5, Cytochrome P450 2B6 (Homo sapiens, UniProt P20813); assay: Inhibition of CYP2B6 (unknown origin); type: ADME
T5 sequence (P20813 whole entry): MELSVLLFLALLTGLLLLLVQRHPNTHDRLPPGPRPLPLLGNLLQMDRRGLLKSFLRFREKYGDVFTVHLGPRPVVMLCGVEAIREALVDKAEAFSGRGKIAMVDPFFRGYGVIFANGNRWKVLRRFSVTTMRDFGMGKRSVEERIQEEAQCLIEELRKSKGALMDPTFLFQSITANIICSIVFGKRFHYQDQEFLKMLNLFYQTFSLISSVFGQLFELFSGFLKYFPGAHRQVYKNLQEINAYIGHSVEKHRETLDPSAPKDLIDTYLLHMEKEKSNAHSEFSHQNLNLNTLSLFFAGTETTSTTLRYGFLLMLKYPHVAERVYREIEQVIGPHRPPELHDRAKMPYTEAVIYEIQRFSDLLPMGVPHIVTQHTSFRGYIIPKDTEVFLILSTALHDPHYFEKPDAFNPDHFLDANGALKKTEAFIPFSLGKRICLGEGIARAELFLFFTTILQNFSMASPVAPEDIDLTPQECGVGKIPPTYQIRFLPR

[12] = Antiproliferative activity against human PNT2 cells assessed as cell viability after 72 hrs by MTT assay; type: functional; conditions: PNT2, 72 h
[13] = Antiproliferative activity against human CAL27 cells assessed as cell viability after 72 hrs by MTT assay; type: functional; conditions: CAL-27, 72 h
[14] = Drug metabolism in Sprague-Dawley rat liver microsomes at 10 uM after 30 mins by LCMS analysis; type: ADME; conditions: read-out: Drug metabolism
Cytochrome P450 2C19 = Cytochrome P450 2C19 (Homo sapiens, UniProt P33261); assay: Inhibition of CYP2C19 (unknown origin); type: ADME; conditions: human
[15] = Clearance in Balb/C mouse blood at 5 mg/kg, iv or po after 24 hrs by ESI-LCMS/MS analysis; type: ADME, organism-based
Cytochrome P450 2C9 = Cytochrome P450 2C9 (Homo sapiens, UniProt P11712); assay: Inhibition of CYP2C9 (unknown origin); type: ADME; conditions: human
[16] = Cmax in Sprague-Dawley rat blood at 5 mg/kg, po after 24 hrs by ESI-LCMS/MS analysis; type: ADME, organism-based; parameters: dose 5 mg/kg, route oral
Cytochrome P450 3A4 [17] = target: T1, Cytochrome P450 3A4; assay: Inhibition of CYP3A4T (unknown origin); type: ADME
[18] = Volume of distribution at steady state in Sprague-Dawley rat at 5 mg/kg, iv or po after 24 hrs by ESI-LCMS/MS analysis; type: ADME, organism-based; conditions: in vivo, read-out: Vdss
[19] = target: Voltage-gated inwardly rectifying potassium channel KCNH2 (Homo sapiens, UniProt Q12809); assay: Inhibition of human ERG at 1 to 10 uM
[20] = AUC in Balb/C mouse blood at 5 mg/kg, po after 24 hrs by ESI-LCMS/MS analysis; type: ADME, organism-based; parameters: time < 24 hr, dose 5 mg/kg, route oral
[21] = Antiproliferative activity against human RMG-1 cells assessed as cell viability after 72 hrs by MTT assay; type: functional; conditions: RMG-I
[22] = Oral bioavailability in Balb/C mouse at 5 mg/kg after 24 hrs by ESI-LCMS/MS analysis; type: ADME, organism-based; conditions: in vivo
[23] = target: Mitogen-activated protein kinase 8 (Homo sapiens, UniProt P45983); assay: Inhibition of human full length recombinant His-tagged JNK1 expressed in baculovirus by lanthascreen assay
[24] = Oral bioavailability in Sprague-Dawley rat at 5 mg/kg after 24 hrs by ESI-LCMS/MS analysis; type: ADME, organism-based; conditions: in vivo
[25] = Half life in Balb/C mouse blood at 5 mg/kg, iv or po after 24 hrs by ESI-LCMS/MS analysis; type: ADME, organism-based
[26] = Volume of distribution at steady state in Balb/C mouse at 5 mg/kg, iv or po after 24 hrs by ESI-LCMS/MS analysis; type: ADME, organism-based; conditions: in vivo, read-out: Vdss
[27] = Antiproliferative activity against human MIAPaCa2 cells assessed as cell viability after 72 hrs by MTT assay; type: functional; conditions: MIA PaCa-2, 72 h
Cytochrome P450 3A4 [28] = target: T1, Cytochrome P450 3A4; assay: Inhibition of CYP3A4 (unknown origin) using midazolam as substrate; type: ADME
[29] = target: Serine/threonine-protein kinase PLK1 (Homo sapiens, UniProt P53350); assay: Inhibition of human full length recombinant His-tagged PLK1 expressed in baculovirus by Z'-LYTE assay
[30] = target: Mitogen-activated protein kinase 9 (Homo sapiens, UniProt P45984); assay: Inhibition of human full length recombinant His-tagged JNK2 expressed in baculovirus by lanthascreen assay
[31] = Plasma protein binding in Sprague-Dawley rat at 5 mg/kg, iv or po after 24 hrs by ESI-LCMS/MS analysis; type: ADME, organism-based; conditions: read-out: PPB (converted)

T1 sequence (P08684 whole entry): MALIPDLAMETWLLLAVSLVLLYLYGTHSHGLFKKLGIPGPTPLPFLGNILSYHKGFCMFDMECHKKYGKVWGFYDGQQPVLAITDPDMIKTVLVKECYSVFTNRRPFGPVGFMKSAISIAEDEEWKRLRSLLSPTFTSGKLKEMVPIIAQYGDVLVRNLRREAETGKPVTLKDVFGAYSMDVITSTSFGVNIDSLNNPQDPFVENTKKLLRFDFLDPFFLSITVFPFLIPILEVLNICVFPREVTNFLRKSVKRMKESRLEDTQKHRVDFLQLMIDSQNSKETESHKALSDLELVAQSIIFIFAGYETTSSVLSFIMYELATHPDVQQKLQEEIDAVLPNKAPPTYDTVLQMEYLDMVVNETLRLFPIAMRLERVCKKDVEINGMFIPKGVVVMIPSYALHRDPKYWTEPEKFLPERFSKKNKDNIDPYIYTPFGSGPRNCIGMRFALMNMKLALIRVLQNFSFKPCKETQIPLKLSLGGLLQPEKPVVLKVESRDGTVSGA
Sequence of Voltage-gated inwardly rectifying potassium channel KCNH2 (Q12809 whole entry): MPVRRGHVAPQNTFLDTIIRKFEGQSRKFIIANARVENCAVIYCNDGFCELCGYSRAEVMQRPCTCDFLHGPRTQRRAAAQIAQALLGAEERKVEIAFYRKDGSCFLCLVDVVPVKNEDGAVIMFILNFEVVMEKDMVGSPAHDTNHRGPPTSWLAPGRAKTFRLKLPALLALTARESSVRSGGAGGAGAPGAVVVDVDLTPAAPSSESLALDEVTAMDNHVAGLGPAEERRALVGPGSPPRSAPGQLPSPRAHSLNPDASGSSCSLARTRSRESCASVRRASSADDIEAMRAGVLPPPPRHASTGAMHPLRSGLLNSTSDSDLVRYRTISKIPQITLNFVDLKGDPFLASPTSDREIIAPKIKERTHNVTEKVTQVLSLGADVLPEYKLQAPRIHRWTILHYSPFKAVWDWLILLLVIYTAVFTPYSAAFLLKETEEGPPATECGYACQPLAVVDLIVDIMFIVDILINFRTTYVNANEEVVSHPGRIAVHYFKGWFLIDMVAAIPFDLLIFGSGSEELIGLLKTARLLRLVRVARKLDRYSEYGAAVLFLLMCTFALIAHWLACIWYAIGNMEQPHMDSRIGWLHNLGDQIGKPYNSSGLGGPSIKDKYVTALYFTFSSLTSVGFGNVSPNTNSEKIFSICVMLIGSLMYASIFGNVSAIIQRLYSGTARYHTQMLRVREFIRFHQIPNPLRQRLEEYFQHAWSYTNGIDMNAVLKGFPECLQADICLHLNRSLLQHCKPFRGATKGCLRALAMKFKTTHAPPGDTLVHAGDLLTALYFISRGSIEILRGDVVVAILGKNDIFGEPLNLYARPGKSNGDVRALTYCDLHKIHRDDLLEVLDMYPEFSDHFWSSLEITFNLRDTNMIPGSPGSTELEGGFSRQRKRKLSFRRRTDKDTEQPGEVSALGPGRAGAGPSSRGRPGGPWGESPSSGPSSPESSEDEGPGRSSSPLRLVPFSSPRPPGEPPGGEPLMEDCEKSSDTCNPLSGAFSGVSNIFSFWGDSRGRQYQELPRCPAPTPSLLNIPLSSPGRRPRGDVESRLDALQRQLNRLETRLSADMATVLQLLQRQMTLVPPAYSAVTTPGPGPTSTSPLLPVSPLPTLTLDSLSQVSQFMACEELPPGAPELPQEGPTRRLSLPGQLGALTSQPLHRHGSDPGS
Sequence of Cytochrome P450 2C19 (P33261 whole entry): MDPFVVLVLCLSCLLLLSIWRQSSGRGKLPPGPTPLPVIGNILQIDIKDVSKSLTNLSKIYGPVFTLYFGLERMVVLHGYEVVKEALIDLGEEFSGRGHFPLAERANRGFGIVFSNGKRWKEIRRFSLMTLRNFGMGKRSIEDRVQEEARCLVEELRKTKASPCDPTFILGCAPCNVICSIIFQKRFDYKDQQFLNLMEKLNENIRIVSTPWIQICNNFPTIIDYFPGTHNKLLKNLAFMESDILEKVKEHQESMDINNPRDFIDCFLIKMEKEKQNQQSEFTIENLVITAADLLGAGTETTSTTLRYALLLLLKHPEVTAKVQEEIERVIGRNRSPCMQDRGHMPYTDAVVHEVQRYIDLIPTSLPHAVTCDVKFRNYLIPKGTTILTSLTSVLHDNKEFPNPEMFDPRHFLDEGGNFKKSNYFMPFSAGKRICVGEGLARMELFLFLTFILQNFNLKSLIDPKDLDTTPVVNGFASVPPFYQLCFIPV
Sequence of Mitogen-activated protein kinase 9 (P45984 whole entry): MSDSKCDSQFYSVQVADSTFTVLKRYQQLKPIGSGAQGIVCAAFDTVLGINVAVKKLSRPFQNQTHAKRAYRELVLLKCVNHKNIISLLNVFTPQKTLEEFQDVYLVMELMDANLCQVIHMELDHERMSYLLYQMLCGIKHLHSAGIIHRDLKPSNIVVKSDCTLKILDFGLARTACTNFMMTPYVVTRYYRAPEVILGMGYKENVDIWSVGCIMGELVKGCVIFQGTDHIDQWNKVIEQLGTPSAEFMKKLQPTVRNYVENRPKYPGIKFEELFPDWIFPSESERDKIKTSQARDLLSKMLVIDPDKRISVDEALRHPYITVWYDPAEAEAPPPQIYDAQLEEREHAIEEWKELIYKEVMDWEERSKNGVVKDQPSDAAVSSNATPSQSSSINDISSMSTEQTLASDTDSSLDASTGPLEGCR
Sequence of Mitogen-activated protein kinase 8 (P45983 whole entry): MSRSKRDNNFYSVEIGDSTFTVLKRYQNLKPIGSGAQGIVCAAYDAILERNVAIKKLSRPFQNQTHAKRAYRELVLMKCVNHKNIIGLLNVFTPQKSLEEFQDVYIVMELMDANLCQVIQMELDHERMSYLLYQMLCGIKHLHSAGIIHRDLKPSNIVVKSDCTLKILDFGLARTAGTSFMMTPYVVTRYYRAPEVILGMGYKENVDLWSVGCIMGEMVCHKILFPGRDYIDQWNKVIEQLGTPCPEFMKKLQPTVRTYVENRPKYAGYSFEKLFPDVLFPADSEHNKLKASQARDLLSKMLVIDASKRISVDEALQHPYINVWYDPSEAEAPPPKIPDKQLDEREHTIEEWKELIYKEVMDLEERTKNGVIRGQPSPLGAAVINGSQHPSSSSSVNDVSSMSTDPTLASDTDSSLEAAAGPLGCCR
Sequence of Serine/threonine-protein kinase PLK1 (P53350 whole entry): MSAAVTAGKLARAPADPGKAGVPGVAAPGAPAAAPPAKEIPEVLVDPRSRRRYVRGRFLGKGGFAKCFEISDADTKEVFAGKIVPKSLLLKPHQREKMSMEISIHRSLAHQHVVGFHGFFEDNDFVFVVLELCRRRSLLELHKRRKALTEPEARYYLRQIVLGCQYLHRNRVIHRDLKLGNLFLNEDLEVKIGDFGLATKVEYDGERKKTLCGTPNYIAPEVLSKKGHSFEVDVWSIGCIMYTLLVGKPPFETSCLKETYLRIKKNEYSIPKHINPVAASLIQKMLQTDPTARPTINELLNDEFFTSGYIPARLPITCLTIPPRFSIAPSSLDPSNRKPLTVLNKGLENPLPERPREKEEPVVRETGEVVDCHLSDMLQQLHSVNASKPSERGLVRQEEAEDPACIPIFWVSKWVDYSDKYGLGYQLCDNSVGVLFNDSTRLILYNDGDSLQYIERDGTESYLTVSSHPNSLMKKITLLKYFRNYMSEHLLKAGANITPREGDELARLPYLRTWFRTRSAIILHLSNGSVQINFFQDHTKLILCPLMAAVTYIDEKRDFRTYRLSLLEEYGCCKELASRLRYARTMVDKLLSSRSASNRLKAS
Sequence of Cytochrome P450 2C9 (P11712 whole entry): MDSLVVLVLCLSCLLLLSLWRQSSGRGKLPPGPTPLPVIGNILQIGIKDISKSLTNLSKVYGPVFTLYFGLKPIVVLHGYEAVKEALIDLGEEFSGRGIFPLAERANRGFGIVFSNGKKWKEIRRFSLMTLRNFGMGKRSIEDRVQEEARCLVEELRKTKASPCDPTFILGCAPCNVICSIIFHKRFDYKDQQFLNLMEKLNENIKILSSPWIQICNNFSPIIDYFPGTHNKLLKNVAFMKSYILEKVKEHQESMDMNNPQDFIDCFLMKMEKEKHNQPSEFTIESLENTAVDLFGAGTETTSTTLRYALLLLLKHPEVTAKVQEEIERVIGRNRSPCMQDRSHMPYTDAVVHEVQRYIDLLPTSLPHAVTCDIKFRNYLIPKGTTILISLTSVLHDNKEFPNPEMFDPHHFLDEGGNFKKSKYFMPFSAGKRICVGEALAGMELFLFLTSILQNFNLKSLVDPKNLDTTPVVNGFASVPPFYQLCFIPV

Compound: COCCOc1cc(-c2cnn(C)c2)ccc1Nc1ncc2ccnc(-c3cnn(C)c3)c2n1
- metabolised at 0.5 h, 10 µM [1]: 59%

Compound: COc1cc(-c2cnn(C)c2)ccc1Nc1ncc2ccnc(NCC(C)C)c2n1
- metabolised at 0.5 h, 10 µM [1]: 66%
- GI50 [2]: 1100 nM

Compound: COc1ccc(Nc2cc3c(-c4ccco4)cccc3cn2)cc1
- IC50 (CDK2/Cyclin A2): 31.1 µM

Compound: COc1cc(-c2cnn(C)c2)ccc1Nc1ncc2ccnc(-c3cnn(C)c3)c2n1
- metabolised at 0.5 h, 10 µM [1]: 73%

Compound: COc1cc(-c2cnn(C)c2)ccc1Nc1ncc2ccnc(N[C@@H](C)C(C)(C)C)c2n1
- inhibition (INH) (Cytochrome P450 3A4 [3]): Not Active
- clearance [4]: 24 mL/min/kg
- GI50 [5]: 68 nM
- inhibition (INH) (Cytochrome P450 2C8): Not Active
- metabolised at 0.5 h, 10 µM [6]: 70%
- half-life [7]: 150 min
- Cmax [8]: 770 nM
- inhibition (INH) (Cytochrome P450 1A2): Not Active
- inhibition (INH) (Cytochrome P450 2A6): Not Active
- metabolised at 0.5 h, 10 µM [1]: 27%
- GI50 [9]: 65 nM
- AUC at 24 h [10]: 9.3 µM·h
- fraction unbound at 24 h [11]: 0.0002
- inhibition (INH) (Cytochrome P450 2B6): Not Active
- GI50 [12]: 3.95 µM
- GI50 [13]: 230 nM
- metabolised at 0.5 h, 10 µM [14]: 24%
- inhibition (INH) (Cytochrome P450 2C19): Not Active
- clearance [15]: 28 mL/min/kg
- inhibition (INH) (Cytochrome P450 2C9): Not Active
- Cmax [16]: 560 nM
- inhibition (INH) (Cytochrome P450 3A4 [17]): Not Active
- Vd [18]: 4.64 L/kg
- inhibition (INH) [19]: Not Active
- AUC at 24 h [20]: 4.8 µM·h
- GI50 [21]: 110 nM
- bioavailability [22]: 68%
- IC50 [23]: 110 nM
- bioavailability [24]: 100%
- half-life [25]: 492 min
- Vd [26]: 14.7 L/kg
- GI50 [27]: 250 nM
- inhibition (INH) (Cytochrome P450 3A4 [28]): Not Active
- IC50 [29]: > 100 µM
- IC50 [30]: 220 nM
- GI50 [2]: 160 nM
- fraction unbound at 24 h [31]: 0.0003

Compound: COc1cc(-c2cnn(C)c2)ccc1Nc1ncc2ccnc(NCC3CC3)c2n1
- metabolised at 0.5 h, 10 µM [1]: 33%
- GI50 [2]: 320 nM

Compound: COc1cc(-c2cnn(C)c2)ccc1Nc1ncc2ccnc(SC3CCCCC3)c2n1
- IC50 (CDK2/Cyclin A2): > 10 µM

Compound: COc1ccc(Nc2cc3c(-c4cnn(C)c4)cccc3cn2)cc1
- IC50 (CDK2/Cyclin A2): 1.22 µM

Compound: CC(C)Oc1cc(-c2cnn(C)c2)ccc1Nc1ncc2ccnc(-c3cnn(C)c3)c2n1
- metabolised at 0.5 h, 10 µM [1]: 45%
- IC50 (CDK2/Cyclin A2): > 10 µM
